In publication PMC8580996, “2-Oxoglutarate derivatives can selectively enhance or inhibit the activity of human oxygenases” (Nature Communications, 2021):
Where “and” joins values, the source holds several entries; their conditions need not be identical. Equal entries are not always repeated.

How the values were obtained:
[1] = molecular target: FIH (Homo sapiens, UniProt Q9NWT6); assay: FIH steady-state kinetic parameters (SPE-MS, initial hydroxylation rates); format: biochemical; set-up: slope of initial reaction rate: unit not given here
Method in brief: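 FIH-catalysed CA1-20 peptide hydroxylation with varied 2OG or 2OG derivative, 20 μM ammonium iron(II) sulfate plus L-ascorbic acid, in 50 mM Tris, 50 mM NaCl, pH 7.5, 20 °C, monitored by SPE-MS (~1 sample/40 s). Initial rates fitted to Michaelis–Menten for vapp and Kapp; independent triplicates.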

[2] = molecular target: T1, AspH (Homo sapiens, UniProt Q12797); details: 0.05 μM AspH, 1.0 μM hFX-CP101-119, 3.0 μM 2OG, ref 21 (supplementary ref 1); cited from earlier work
T1 construct: the tetratricopeptide repeat domain (His6-AspH315-758), was produced and purified as previously reported; made in house
T1 sequence (Q12797 315-758): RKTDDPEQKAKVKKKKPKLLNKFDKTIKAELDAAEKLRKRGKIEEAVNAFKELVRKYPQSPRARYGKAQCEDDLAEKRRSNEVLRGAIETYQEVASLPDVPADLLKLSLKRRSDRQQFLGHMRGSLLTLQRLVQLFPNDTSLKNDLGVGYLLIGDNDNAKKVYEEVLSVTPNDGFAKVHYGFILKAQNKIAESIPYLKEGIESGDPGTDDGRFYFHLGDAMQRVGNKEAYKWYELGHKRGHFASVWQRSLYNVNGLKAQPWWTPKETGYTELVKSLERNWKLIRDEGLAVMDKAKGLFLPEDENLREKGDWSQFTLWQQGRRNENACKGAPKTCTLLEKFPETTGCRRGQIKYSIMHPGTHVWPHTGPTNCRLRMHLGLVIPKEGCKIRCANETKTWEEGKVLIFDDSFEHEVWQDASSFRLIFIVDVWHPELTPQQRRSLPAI

Sequence of FIH (Q9NWT6 whole entry): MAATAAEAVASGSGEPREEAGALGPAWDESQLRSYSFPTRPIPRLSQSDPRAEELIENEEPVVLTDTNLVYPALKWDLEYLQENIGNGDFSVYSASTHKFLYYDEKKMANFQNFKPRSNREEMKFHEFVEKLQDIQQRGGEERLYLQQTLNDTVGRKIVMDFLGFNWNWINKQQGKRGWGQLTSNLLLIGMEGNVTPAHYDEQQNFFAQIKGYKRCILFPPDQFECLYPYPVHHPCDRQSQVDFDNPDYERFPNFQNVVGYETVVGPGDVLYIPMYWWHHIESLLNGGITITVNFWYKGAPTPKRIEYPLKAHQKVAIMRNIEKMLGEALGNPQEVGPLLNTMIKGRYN

SMILES: O=C(O)C(=O)C1CCC(C(=O)O)C1 (centres unmarked) [compound 22, 3-(carboxycarbonyl)cyclopentane-1-carboxylic acid]
- SPE-MS determined concentration of hydroxylated HIF-1a peptide ([1]; 4 uM compound 22, time 2.098 min): 0.04779 µM and 0.05783 µM and 0.03772 µM
- SPE-MS determined concentration of hydroxylated HIF-1a peptide ([1]; 4 uM compound 22, time 2.797 min): 0.05438 µM and 0.0588 µM and 0.03391 µM
- SPE-MS determined concentration of hydroxylated HIF-1a peptide ([1]; 4 uM compound 22 as cosubstrate, time 3.49667 min, replicates 1-3): 0.05919 µM and 0.07205 µM and 0.04053 µM
- SPE-MS determined concentration of hydroxylated HIF-1a peptide ([1]; 8 uM compound 22, time 0.699833 min): 0.02809 µM and 0.04706 µM and 0.04281 µM
- SPE-MS determined concentration of hydroxylated HIF-1a peptide ([1]; 8 uM compound 22, time 2.098 min): 0.0572 µM and 0.06337 µM and 0.07945 µM
- SPE-MS determined concentration of hydroxylated HIF-1a peptide ([1]; 8 uM compound 22, time 2.797 min): 0.05834 µM and 0.07508 µM and 0.08857 µM
- SPE-MS determined concentration of hydroxylated HIF-1a peptide ([1]; 8 uM compound 22 as cosubstrate, time 3.49667 min, replicates 1-3): 0.08563 µM and 0.07413 µM and 0.09575 µM
- SPE-MS determined concentration of hydroxylated HIF-1a peptide ([1]; 8 uM compound 22 as cosubstrate, time 4.19733 min, replicates 1-3): 0.0782 µM
- SPE-MS determined concentration of hydroxylated HIF-1a peptide ([1]; 16 uM compound 22, time 0.699833 min): 0.06076 µM and 0.05382 µM and 0.0426 µM
- SPE-MS determined concentration of hydroxylated HIF-1a peptide ([1]; 16 uM compound 22, time 2.098 min): 0.08485 µM and 0.09545 µM and 0.07537 µM
- SPE-MS determined concentration of hydroxylated HIF-1a peptide ([1]; 16 uM compound 22, time 2.797 min): 0.09668 µM and 0.1092 µM and 0.09109 µM
- SPE-MS determined concentration of hydroxylated HIF-1a peptide ([1]; 16 uM compound 22 as cosubstrate, time 3.49667 min, replicates 1-3): 0.105 µM and 0.1268 µM and 0.09176 µM
- SPE-MS determined concentration of hydroxylated HIF-1a peptide ([1]; 32 uM compound 22, time 0.699833 min): 0.06848 µM and 0.06274 µM and 0.0479 µM
- SPE-MS determined concentration of hydroxylated HIF-1a peptide ([1]; 32 uM compound 22, time 2.098 min): 0.1104 µM and 0.1151 µM and 0.1012 µM
- SPE-MS determined concentration of hydroxylated HIF-1a peptide ([1]; 32 uM compound 22, time 2.797 min): 0.1309 µM and 0.1405 µM and 0.1242 µM
- SPE-MS determined concentration of hydroxylated HIF-1a peptide ([1]; 32 uM compound 22 as cosubstrate, time 3.49667 min, replicates 1-3): 0.1431 µM and 0.1593 µM and 0.14 µM
- SPE-MS determined concentration of hydroxylated HIF-1a peptide ([1]; 64 uM compound 22, time 0 min): 0.02766 µM and 0.02 µM and 0.02798 µM
- SPE-MS determined concentration of hydroxylated HIF-1a peptide ([1]; 64 uM compound 22, time 0.699833 min): 0.06638 µM and 0.06107 µM and 0.07538 µM
- SPE-MS determined concentration of hydroxylated HIF-1a peptide ([1]; 64 uM compound 22, time 2.098 min): 0.1181 µM and 0.1293 µM and 0.1259 µM
- SPE-MS determined concentration of hydroxylated HIF-1a peptide ([1]; 64 uM compound 22, time 2.797 min): 0.146 µM and 0.1627 µM and 0.1536 µM
- SPE-MS determined concentration of hydroxylated HIF-1a peptide ([1]; 64 uM compound 22 as cosubstrate, time 3.49667 min, replicates 1-3): 0.169 µM and 0.1906 µM and 0.171 µM
- SPE-MS determined concentration of hydroxylated HIF-1a peptide ([1]; 128 uM compound 22, time 0.699833 min): 0.06651 µM and 0.09916 µM and 0.08534 µM
- SPE-MS determined concentration of hydroxylated HIF-1a peptide ([1]; 128 uM compound 22, time 2.098 min): 0.1375 µM and 0.1676 µM and 0.1537 µM
- SPE-MS determined concentration of hydroxylated HIF-1a peptide ([1]; 128 uM compound 22, time 2.797 min): 0.162 µM and 0.1955 µM and 0.1789 µM
- SPE-MS determined concentration of hydroxylated HIF-1a peptide ([1]; 128 uM compound 22 as cosubstrate, time 3.49667 min, replicates 1-3): 0.1878 µM and 0.2084 µM and 0.2042 µM
- SPE-MS determined concentration of hydroxylated HIF-1a peptide ([1]; 256 uM compound 22, time 0 min): 0.05949 µM and 0.04197 µM
- SPE-MS determined concentration of hydroxylated HIF-1a peptide ([1]; 256 uM compound 22, time 0.699833 min): 0.1 µM and 0.09439 µM
- SPE-MS determined concentration of hydroxylated HIF-1a peptide ([1]; 256 uM compound 22, time 2.098 min): 0.1712 µM and 0.1647 µM
- SPE-MS determined concentration of hydroxylated HIF-1a peptide ([1]; 256 uM compound 22, time 2.797 min): 0.1988 µM and 0.1857 µM
- SPE-MS determined concentration of hydroxylated HIF-1a peptide ([1]; 256 uM compound 22 as cosubstrate, time 3.49667 min, replicates 2-3 (replicate 1 empty)): 0.2377 µM and 0.2176 µM
- slope of initial reaction rate ([1]; CA1-20, 16 μM 22): 0.001019 and 0.001398 and 0.001783
- slope of initial reaction rate ([1]; CA1-20, 32 μM 22): 0.002274 and 0.002243 and 0.002771
- slope of initial reaction rate ([1]; CA1-20, 64 μM 22): 0.003753 and 0.003305 and 0.003867
- slope of initial reaction rate ([1]; CA1-20, 128 μM 22): 0.0046 and 0.003872 and 0.004223
- slope of initial reaction rate ([1]; CA1-20, 256 μM 22): 0.004108 and 0.004197 and 0.004611
- FIH Kmapp ([1]; CA1–20 substrate): 39 µM
- slope of initial reaction rate ([1]; HIF-1a788-822, 8 μM 22): 0.000249 and 0.000403 and 0.000322
- slope of initial reaction rate ([1]; HIF-1a788-822, 16 μM 22): 0.000332 and 0.000535 and 0.000447
- slope of initial reaction rate ([1]; HIF-1a788-822, 32 μM 22): 0.000561 and 0.000718 and 0.000685
- slope of initial reaction rate ([1]; HIF-1a788-822, 64 μM 22): 0.000686 and 0.000843 and 0.000711
- slope of initial reaction rate ([1]; HIF-1a788-822, 128 μM 22): 0.000874 and 0.000824 and 0.000795
- slope of initial reaction rate ([1]; HIF-1a788-822, 256 μM 22): 0.000833 and 0.000843
- FIH Kmapp ([1]; HIF-1α788–822 substrate): 15 µM
- IC50 [2]: 5 µM
